In PMC10186366 (ACS Pharmacology & Translational Science, 2023):

Columns and labels:
[1] = test system: SHMT2 (mitochondrial C1 metabolism) in KB tumor cells; experiment: Targeted metabolomics flux analysis with [2,3,3-2H]serine in KB cells; type: cell-based, human; settings: 0.1 μM compound, 250 μM [2,3,3-2H]serine, versus vehicle-treated cells
Text: Serine is catabolized in the mitochondria via SHMT2, which converts serine to glycine and 5,10-methylene THF, the latter of which is metabolized by MTHFD2 to 10-CHOTHF and by MTHFD1L to formate (Figure 7).
The cells were processed for liquid chromatography–mass spectrometry (LC–MS) analysis of total serine and glycine, and deuterated serine (M + 3, M + 2, M + 1, and M + 0 serine, where M + n represents species with n deuterium atoms) and glycine (M + 1 and M + 0) isotopomers. The results are shown in Figure 8 and are compared to those for control (vehicle-treated) cells (labeled “N/A”).
Figure 8 Metabolomics flux analysis with [2,3,3-^2H]serine to assay mitochondrial C1 metabolism via SHMT2. (A) A schematic of [2,3,3-^2H]serine metabolism is shown. Heavy (^2H) atoms in serine (colored circles) are metabolized via SHMT2 initially followed by MTHFD2 and MTHFD1L to formate. (B, C) Total serine and glycine and the distribution of the serine (M + n, n = 0−3) and glycine (n = 0 or 1) isotopomers are shown. The loss of M + 3 serine corresponding to the metabolism of [2,3,3-^2H]serine to M + 1 glycine is a direct measure of SHMT2 activity in the cells.[45] Experimental methods are described in the Experimental Section. Results are shown as mean values plus/minus standard deviations (n = 3). *P < 0.05; **P < 0.01. […]
KB cells (1 × 10[6]) were seeded in each of three 60 mm dishes in folate-, serine-, and glycine-free RPMI1640 supplemented with 10% DFBS, 1% penicillin/streptomycin, 2 mM L-glutamine, 285 μM serine, 130 μM glycine, and 2 nM leucovorin. […] The targeted metabolites were quantitatively determined using the AB Sciex QTRAP 6500 LC–MS/MS system. […] Isotopomers were detected using multiple reaction monitoring (MRM) at the positive ionization mode. […] Absolute metabolite concentrations were calculated from calibration curves and then normalized to total protein concentrations measured from the postextraction pellet (solubilized in 0.5 N NaOH) using the Folin-phenol method.[53] […] To correct for multiple comparisons, adjusted p values were determined using Holm’s method.

[2] = target: T1, SHMT2 (Homo sapiens, UniProt P34897); experiment: SHMT2 coupled enzyme assay with MTHFD2 (NADH production); type: biochemical; settings: mean (standard error), at least three replicate assays
T1 construct: N-terminal His6-tagged SHMT2 (residues 30–504); made in house; host or cells: E. coli Rosetta (DE3)pLysS
T1 sequence (P34897 30-504): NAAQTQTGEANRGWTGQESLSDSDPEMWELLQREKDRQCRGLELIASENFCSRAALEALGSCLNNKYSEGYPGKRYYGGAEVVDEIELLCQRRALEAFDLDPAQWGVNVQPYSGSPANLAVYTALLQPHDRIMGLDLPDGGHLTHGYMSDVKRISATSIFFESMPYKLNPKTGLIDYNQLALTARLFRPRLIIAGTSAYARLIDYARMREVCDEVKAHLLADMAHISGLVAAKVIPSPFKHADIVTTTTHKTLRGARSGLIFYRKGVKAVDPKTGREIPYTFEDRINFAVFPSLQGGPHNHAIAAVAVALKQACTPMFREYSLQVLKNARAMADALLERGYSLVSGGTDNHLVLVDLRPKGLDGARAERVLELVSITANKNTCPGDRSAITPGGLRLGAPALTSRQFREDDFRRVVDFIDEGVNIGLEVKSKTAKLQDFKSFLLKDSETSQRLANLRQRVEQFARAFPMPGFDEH
Description: N-terminal His6-tagged SHMT2 (residues 30–504) and full-length MTHFD2 were expressed in Rosetta (DE3)pLysS cells. One liter cultures were grown in LB media with 100 mg/mL ampicillin and 35 mg/mL chloramphenicol at 37 °C until the OD600 was 0.6. […] The cells were pelleted and resuspended in 25 mL of 25 mM Tris–HCl, pH 7.5, 300 mM NaCl, and 5 mM β-Me. To lyse the cells, 40 mg lysozyme and 8 U DNAse I were added followed by incubation on ice for 15 min. The cells were then lysed by emulsification.
Purification of His-SHMT2 and His-MTHFD2 was by Ni-affinity chromatography (above). For further purification of His-SHMT2, pyridoxal 5′-phosphate (PLP) was added (3-fold excess to His-SHMT2) followed by incubation for 16–18 h. Further purification was by size exclusion chromatography on a Superdex 200 16/60 column (GE Healthcare) with monitoring of PLP absorbance at 435 nm. Purified His-SHMT2 was stored in 20 mM sodium phosphate buffer, pH 7.5, 100 mM potassium chloride, 0.2 mM EDTA, and 5 mM β-ME. To further purify MTHFD2, size exclusion chromatography was performed using a Superdex 200 16/60 column (GE Healthcare). His-MTHFD2 was stored in 50 mM Tris–HCl buffer, pH 7.5, 250 mM sodium chloride, 5% glycerol, and 0.5 mM tris(2-chloroethyl) phosphate (TCEP).
Kinetic measurements were recorded in triplicate in a UV-transparent 96-well plate (Costar 3635) at 298 nm using a BioTek Synergy Neo2 Plate Reader. Initial slopes were graphed against inhibitor concentrations and fit to a three-parameter nonlinear regression to calculate IC50 values for each compound (GraphPad Prism 8.0). […] SHMT2 activity was assayed by monitoring NADH production with a coupled assay including 500 nM His-SHMT2 and 10 μM His-MTHFD2 (1:200 molar ratio His-SHMT2/His-MTHFD2). NADH production by His-MTHFD2 was monitored by fluorescence at 470 nm with excitation at 360 nm (Synergy Neo2 Biotek plate reader). Inhibition constants (Ki’s) were calculated from the IC50 values using the equation Ki = IC50/([S]/KM + 1) and the Km and substrate concentration for THF. The THF concentration in the reaction was 50 mM.

[3] = test system: D4 CHO cells (expresses only human FRβ); settings: 96 h; mean (standard error); previously published; cited from earlier work
[4] = test system: PC43-10 CHO cells (expresses only human RFC); settings: 96 h; mean (standard error); previously published; cited from earlier work

Row | Structure (SMILES) | Increase in M + 3 serine [1] | Ki [2] | IC50 [3] | IC50 [4]
1 | Nc1nc2sc(CCCc3ccc(C(=O)N[C@@H](CCC(=O)O)C(=O)O)cc3)cc2c(=O)[nH]1 [Compound 1] | 2–4 fold | 67.3 µM | 0.112 µM | > 1 µM
2 | Nc1nc2sc(CCCc3ccc(C(=O)N[C@@H](CCC(=O)O)C(=O)O)c(F)c3)cc2c(=O)[nH]1 [Compound 6, (4-(3-(2-Amino-4-oxo-3,4-dihydrothieno[2,3-d]pyrimidin-6-yl)propyl)-2-fluorobenzoyl)-L-glutamic Acid] | 2–4 fold | 27.6 µM | – | –
